# In patent US7288567B2, “Inhibitors of histone deacetylase” (Methylgene Inc., priority 2000, dated 2007):
# Tests used:
# [1] = molecular target: T1, recombinant human HDAC-1 enzyme (rHDAC-1) (Homo sapiens, UniProt Q13547); test: Histone deacetylase inhibition, recombinant human HDAC-1; format: biochemical; conditions: cloned recombinant human HDAC-1, Baculovirus insect cell expression; read-out: rHDAC-1 IC50
# T1 construct: made in house; host or cells: Baculovirus insect cell expression system
# T1 sequence (Q13547 whole entry): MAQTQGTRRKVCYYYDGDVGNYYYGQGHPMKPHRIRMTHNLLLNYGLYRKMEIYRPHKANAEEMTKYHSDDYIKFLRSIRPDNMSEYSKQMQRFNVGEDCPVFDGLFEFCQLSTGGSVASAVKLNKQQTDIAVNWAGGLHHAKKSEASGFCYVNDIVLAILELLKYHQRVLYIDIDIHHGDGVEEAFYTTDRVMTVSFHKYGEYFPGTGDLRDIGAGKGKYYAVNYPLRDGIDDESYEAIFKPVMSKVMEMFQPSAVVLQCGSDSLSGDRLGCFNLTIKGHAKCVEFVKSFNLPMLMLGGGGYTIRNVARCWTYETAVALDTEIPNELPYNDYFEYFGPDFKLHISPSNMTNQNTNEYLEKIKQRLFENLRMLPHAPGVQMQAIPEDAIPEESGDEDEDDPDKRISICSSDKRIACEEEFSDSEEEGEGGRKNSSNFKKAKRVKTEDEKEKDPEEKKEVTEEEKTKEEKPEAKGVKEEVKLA
# Procedure, shortened: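 Recombinant human HDAC-1 or pooled HDACs from H446 nuclear extracts were preincubated with compounds for 30 min at 4 °C before the reaction. Released [3H]-acetic acid was extracted with ethyl acetate after acid stop and counted by scintillation. IC50 was the concentration giving half-maximal inhibition from dose-response curves.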
# [2] = test system: histone deacetylase enzyme in nuclear extracts from H446 cells (pooled HDACs); test: Histone deacetylase inhibition, H446 nuclear extracts (pooled HDACs); format: biochemical, human; conditions: for pooled HDACs percent inhibition: percent inhibition at 20 μM (footnote); for IC50: H446 nuclear extract, [3H]-acetylated histone substrate
# Description: HDAC inhibitors were screened against histone deacetylase enzyme in nuclear extracts prepared from the human small cell lung cancer cell line H446 (ATTC HTB-171) and against a cloned recombinant human HDAC-1 enzyme expressed and purified from a Baculovirus insect cell expression system.
# For deacetylase assays, 20,000 cpm of the [^3H]-metabolically labeled acetylated histone substrate (M. Yoshida et al., J. Biol. Chem. 265(28): 17174-17179 (1990)) was incubated with 30 μg of H446 nuclear extract or an equivalent amount of the cloned recombinant hHDAC-1 for 10 minutes at 37° C. The reaction was stopped by adding acetic acid (0.04 M, final concentration) and HCl (250 mM, final concentration). The mixture was extracted with ethyl acetate and the released [^3H]-acetic acid was quantified by scintillation counting. For inhibition studies, the enzyme was preincubated with compounds at 4° C. for 30 minutes prior to initiation of the enzymatic assay. IC50 values for HDAC enzyme inhibitors were determined by performing dose response curves with individual compounds and determining the concentration of inhibitor producing fifty percent of the maximal inhibition.
Structure (SMILES),IC50 [1] [nM],pooled HDACs percent inhibition [2] [%],IC50 [2] [nM],pooled HDACs percent inhibition @ 1 μM [2] [%@ 1 μM],pooled HDACs percent inhibition @ 5 μM ([2]; @ 5 μM) [%@ 5 μM]
"O=C(CCCCCCC(=O)c1ccc2ccccc2c1)Nc1ccccc1O [Compound 66, N-(2-Hydroxyphenyl)-7-(2-naphthoyl)heptanamide]",2300,0,–,–,–
"COc1ccc(NC(=O)CCCCCCC(=O)c2ccc(-c3ccccc3)cc2)c(N)c1 [Compound 81, N-(4-(3-Amino)anisole)-7-[(4-biphenyl)carbonyl]heptanamide]",25000,27,–,–,–
"COc1ccc(C(C/C=C/C=C/C(=O)NO)OC)cc1 (stereo not drawn) [Compound 6, N-Hydroxy-7-methoxy-7-(4-methoxyphenyl)-2,4-heptadienamide]",250,–,3000,–,–
"CC(=O)SCC(=O)CCCCCCC(=O)c1cc2ccccc2s1 [Compound 162, 1-Acetylthio-2,9-dioxo-9-(2-benzo[b]thiophene)-nonane]",35,–,40,–,–
"O=C(CCCCCCC(=O)c1ccccc1)CSc1ccccc1 [Compound 159d, 1-Phenylthio-2,9-dioxo-9-phenyl-nonane]",5000,–,50000,–,–
"COc1ccc2cc(C(=O)CCCCCCC(=O)NO)ccc2c1 [Compound 105a, N-Hydroxy-7-[2-(6-methoxy)naphthoyl]heptanamide]",10,–,–,83,–
"CN(c1ccccc1)c1ccc(C(=O)CCCCCCC(=O)NO)cc1 [Compound 138b, N-Hydroxy-7-[4-(N-methyl-N-phenyl)benzoyl]heptanamide]",8,–,49,–,–
"O=C(CCCCCCC(=O)c1ccc(Nc2ccccn2)cc1)NO [Compound 138d, N-Hydroxy-7-[4-(N-2-aminopyridyl)benzoyl]heptanamide]",4,–,20,–,–
"O=C(CCCCCCC(=O)c1ccc(Oc2ccccc2)cc1)NO [Compound 104, N-Hydroxy-7-(4-phenoxybenzoyl)heptanamide]",160,–,–,61,–
"O=C(CCCCCCC(=O)c1ccco1)NO [Compound 52i, N-hydroxy-7-(2-furanoyl)-heptanamide]",100,–,3000,–,–
"O=C(CCCCCCC(=O)c1ccoc1)NO [Compound 52j, N-hydroxy-7-(3-furanoyl)heptanamide]",450,–,3000,–,–
"O=C(CCCCCCC(=NO)c1ccco1)NO [Compound 51i, N-Hydroxy-8-oximino-8-(2-furanyl)octanamide]",100,–,900,–,–
"COc1ccc(C(OC)C(C)(C)/C=C/C=C/C(=O)NO)cc1 (stereo not drawn) [Compound 26, N-Hydroxy-6,6-dimethyl-7-methoxy-7-(4-methoxyphenyl)-2,4-heptadienamide]",1000,–,5000,–,–
"Nc1ccccc1NC(=O)NCCCCCCC(=O)c1ccccc1 [Compound 89, N-(2-Aminophenyl)-N′-[6-(benzoyl)hexyl]urea]",16300,0,–,–,–
O=C(CCCCCCC(=O)c1ccccc1)Nc1cccnc1 [Compound 252],> 20000,0,–,–,–
"O=C(CCCCCCC(=O)c1ccccc1)CSCc1ccccc1 [Compound 159c, 1-Benzylthio-2,9-dioxo-9-phenyl-nonane]",5000,–,–,–,0
"O=C(CCCCCCC(=O)c1cccc2ccccc12)NO [Compound 52f, N-hydroxy-7-(1-naphthoyl)heptanamide]",10,–,550,–,–
"O=C(NCCCCCC(=O)c1ccc(-c2ccccc2)cc1)Nc1ccccc1O [Compound 93, N-(2-Hydroxyphenyl)-N′-[5-((4-biphenyl)carbonyl)pentyl]urea]",6400,0,–,–,–
